Test system: Plasmodium falciparum
Assay: microbe, parasite or virus in culture
Conditions: NF54
Description: Antimicrobial activity against Plasmodium falciparum NF54

SMILES | IC50
CC1(C)CC(C)(OCC23CC4CC(CC(C4)C2)C3)OO1 (stereo unspecified) | 290 nM
CCCCC1(C)CC(C)(OCCc2ccccc2)OO1 (mixture of isomers) | 76 nM
CC1(OCCc2ccccc2)CC2(CCCCC2)OO1 (stereo unspecified) | 9 nM
CC1(OCC23CC4CC(CC(C4)C2)C3)CC2(CCCCC2)OO1 (stereo unspecified) | 35 nM
CCCCC1(C)CC(C)(OCCC)OO1 (mixture of isomers) | > 4000 nM
COC1(Cc2ccccc2)CC2(CCCCC2)OO1 (stereo unspecified) | 340 nM
COC1(C2CCCCC2)CC2(CCCCC2)OO1 (stereo unspecified) | 9.2 nM
COC1(Cc2ccccc2)CC(C)(C)OO1 (stereo unspecified) | 970 nM
CCCCC1(C)CC(C)(OCC23CC4CC(CC(C4)C2)C3)OO1 (mixture of isomers) | 140 nM
CCCCOC1(C)CC(C)(C)OO1 (stereo unspecified) | > 10000 nM
C[C@H]1[C@H](OC(=O)CCC(=O)O)O[C@@H]2O[C@@]3(C)CC[C@H]4[C@H](C)CC[C@@H]1[C@@]24OO3 [ARTESUNATE] | 2.5 nM

Source: ChEMBL document CHEMBL2176898, “3-Alkoxy-1,2-Dioxolanes: Synthesis and Evaluation as Potential Antimalarial Agents” (ACS Med Chem Lett, 2011)
